Measured values as given in PMC10328743, “5-Nitro-3-(2-(4-phenylthiazol-2-yl)hydrazineylidene)indolin-2-one derivatives inhibit HIV-1 replication by a multitarget mechanism of action” (Frontiers in Cellular and Infection Microbiology, 2023).

Biological target: T1, HIV-1 RT-associated RDDP (Human immunodeficiency virus type 1 group M subtype B, UniProt P04585)
T1 construct: The 1:1 ratio between the p66/p51 subunits was also verified; His tag (implied only by Ni-NTA IMAC purification); made in house; host or cells: Escherichia coli M15
Assay: HIV-1 RNA-dependent DNA polymerase activity determination
Type: biochemical
Conditions: wt HIV-1 RT; three independent experiments, average ± standard deviation; read-out: RDDP IC50
Method: Escherichia coli strain M15 containing the p6HRT-prot vector (provided by Stuart Le Grice laboratory (NCI Frederick)) was grown to an optical density at 600 nm of 0.7 and induced with 1.7 mM of isopropyl β-D-1-thiogalactopyranoside (IPTG) for 4 h. Protein purification was carried out with a BioLogic LP system (Bio-Rad, Hercules, CA, USA) using a combination of immobilized metal affinity chromatography (IMAC) and ion exchange chromatography. Cell pellets were resuspended in lysis buffer (50 mM of sodium phosphate buffer, pH 7.8, containing 0.5 mg/mL of lysozyme), incubated on ice for 20 min, and, after the addition of NaCl to a final concentration of 0.3 M, were sonicated and centrifuged at 30,000 ×g for 1 h. The supernatant was loaded onto a Ni^2+-NTA-Sepharose column pre-equilibrated with loading buffer (50 mM of sodium phosphate buffer, pH 7.8, containing 0.3 M of NaCl, 10% glycerol, and 10 mM of imidazole) and washed thoroughly with wash buffer (50 mM of sodium phosphate buffer, pH 6.0, containing 0.3 M of NaCl, 10% glycerol, and 80 mM of imidazole). RT was eluted with an imidazole gradient in the wash buffer (0–0.5 M). Fractions were collected, and protein purity was checked by sodium dodecyl sulfate–polyacrylamide gel electrophoresis (SDS-PAGE) and found to be higher than 90%. The 1:1 ratio between the p66/p51 subunits was also verified. Enzyme-containing fractions were pooled and diluted 1:1 with 50 mM of sodium phosphate buffer, pH 7.0, containing 10% glycerol, and then loaded into a Hi-trap heparin HP GE (Healthcare LifeScience) pre-equilibrated with 10 column volumes of loading buffer (50 mM of sodium phosphate buffer, pH 7.0, containing 10% glycerol, and 150 mM of NaCl). The column was then washed with loading buffer, and the RT was eluted with Elute Buffer 2 (50 mM of sodium phosphate, pH 7.0, 10% glycerol, 1 M of NaCl). Fractions were collected, and the protein was dialyzed and stored in a buffer containing 50 mM of Tris-HCl, pH 7.0, 25 mM of NaCl, 1 mM of EDTA, and 50% glycerol. Catalytic activities and protein concentrations were determined. Enzyme-containing fractions were pooled, and aliquots were stored at −80°C.
RDDP activity was measured as previously reported in 25-µl volume containing 60 mM of Tris‐HCl buffer, pH 8.1, 8 mM of MgCl2, 60 mM of KCl, 13 mM of DTT, 2.5 µM of poly(A)-oligo(dT), 100 µM of dTTP, increasing concentrations of inhibitors, whose dilution were made in water, and different amounts of enzymes according to a linear range of the dose–response curve. The reaction mixture was incubated for 30 min at 37°C and then stopped by the addition of EDTA. Reaction products were detected by pico green addition and measured with a multilabel counter plate reader Victor 3, equipped with filters for 502/523 nm.

Row | SMILES | IC50 [µM]
1 | Cc1ccc(-c2csc(N/N=C3\C(=O)Nc4ccc([N+](=O)[O-])cc43)n2)cc1 [10a] | 18 ± 1.5
2 | O=C1Nc2ccc(Cl)cc2/C1=N/Nc1nc(-c2ccc(Cl)c(Cl)c2)cs1 [9b] | 24 ± 3
